Measured values published in ChEMBL document CHEMBL5143550, “Thiol- and Disulfide-Containing Vancomycin Derivatives Against Bacterial Resistance and Biofilm Formation” (2021).
In brackets after ≈: the same amount, converted by molar mass.

Tests used:
Type in all cases: functional
Enterococcus faecium [1] = test: Potency index, ratio of vancomycin MIC to test compound MIC for antibacterial activity against VanA-resistant Enterococcus faecium MMX0485 assessed as inhibition of bacterial growth by standard broth microdilution susceptibility method
Enterococcus faecalis [2] = test: Antibacterial activity against VanB-resistant Enterococcus faecalis ATCC 51299 assessed as inhibition of colony formation in BHIG medium incubated for 24 hrs by resazurin assay
Streptococcus pneumoniae [3] = test: Antibacterial activity against […] assessed as inhibition of bacterial growth by standard broth microdilution susceptibility method
Staphylococcus aureus [4] = test: Antibacterial activity against Staphylococcus aureus ATCC 25923 assessed as inhibition of bacterial growth by standard broth microdilution susceptibility method
Enterococcus faecalis [5] = test: Antibiofilm activity against VanB-resistant Enterococcus faecalis ATCC 51299 assessed as inhibition of biofilm formation in BHIG medium incubated for 24 hrs by resazurin assay relative to vancomycin
Enterococcus faecalis [6] = test: Potency index, ratio of vancomycin MIC to test compound MIC for antibacterial activity against VanB-resistant Enterococcus faecalis ATCC 51299 assessed as inhibition of bacterial growth by standard broth microdilution susceptibility method
Clostridioides difficile [7] = test: Antibacterial activity against Clostridium difficile ATCC 43255 assessed as inhibition of bacterial growth by standard broth microdilution susceptibility method
Enterococcus gallinarum [8] = test: Potency index, ratio of vancomycin MIC to test compound MIC for antibacterial activity against VanC-resistant Enterococcus gallinarum ATCC 700221 assessed as inhibition of bacterial growth by standard broth microdilution susceptibility method
Staphylococcus aureus [9] = test: Antibacterial activity against methicillin-resistant Staphylococcus aureus ATCC 43300 assessed as inhibition of bacterial growth by standard broth microdilution susceptibility method
Moraxella catarrhalis = test: Antibacterial activity against Moraxella catarrhalis ATCC 8193 assessed as inhibition of bacterial growth by standard broth microdilution susceptibility method
Enterococcus faecalis [10] = test: Antibiofilm activity against VanB-resistant Enterococcus faecalis ATCC 51299 assessed as inhibition of biofilm formation in BHIG medium incubated for 24 hrs by resazurin assay
Staphylococcus aureus [11] = test: Antibacterial activity against heterogenous vancomycin-intermediate Staphylococcus aureus ATCC NRS24 assessed as inhibition of bacterial growth by standard broth microdilution susceptibility method
Staphylococcus aureus [12] = test: Antibacterial activity against vancomycin-intermediate Staphylococcus aureus ATCC NRS1 assessed as inhibition of bacterial growth by standard broth microdilution susceptibility method
Enterococcus faecalis [13] = test: Antibacterial activity against VanB-resistant Enterococcus faecalis ATCC 51299 assessed as inhibition of bacterial growth in BHIG medium incubated for 24 hrs by resazurin assay
Enterococcus gallinarum [14] = test: Antibacterial activity against VanC-resistant Enterococcus gallinarum ATCC 700221 assessed as inhibition of bacterial growth by standard broth microdilution susceptibility method
Enterococcus faecalis [15] = test: Antibiofilm activity against VanB-resistant Enterococcus faecalis ATCC 51299 assessed as inhibition of biofilm formation by measuring decrease in RFU in BHIG medium incubated for 24 hrs by resazurin assay
Enterococcus faecalis [16] = test: Antibacterial activity against VanB-resistant Enterococcus faecalis ATCC 51299 assessed as inhibition of bacterial growth by standard broth microdilution susceptibility method
Enterococcus faecium [17] = test: Antibacterial activity against VanA-resistant Enterococcus faecium MMX0485 assessed as inhibition of bacterial growth by standard broth microdilution susceptibility method
Staphylococcus aureus [18] = test: Potency index, ratio of vancomycin MIC to test compound MIC for antibacterial activity against heterogenous vancomycin-intermediate Staphylococcus aureus ATCC NRS24 assessed as inhibition of bacterial growth by standard broth microdilution susceptibility method
Staphylococcus aureus [19] = test: Potency index, ratio of vancomycin MIC to test compound MIC for antibacterial activity against vancomycin-intermediate Staphylococcus aureus ATCC NRS1 assessed as inhibition of bacterial growth by standard broth microdilution susceptibility method
Clostridioides difficile [20] = test: Potency index, ratio of vancomycin MIC to test compound MIC for antibacterial activity against Clostridium difficile ATCC 43255 assessed as inhibition of bacterial growth by standard broth microdilution susceptibility method
Streptococcus pneumoniae [21] = test: Potency index, ratio of vancomycin MIC to test compound MIC for antibacterial activity against […] assessed as inhibition of bacterial growth by standard broth microdilution susceptibility method

Row | SMILES | Ratio (Enterococcus faecium [1]) | Activity (Enterococcus faecalis [2]) | MIC (Streptococcus pneumoniae [3]) | MIC (Staphylococcus aureus [4]) | Ratio (Enterococcus faecalis [5]) | Ratio (Enterococcus faecalis [6]) | MIC (Clostridioides difficile [7]) | Ratio (Enterococcus gallinarum [8]) | MIC (Staphylococcus aureus [9]) | MIC (Moraxella catarrhalis) | MBIC (Enterococcus faecalis [10]) | MIC (Staphylococcus aureus [11]) | MIC (Staphylococcus aureus [12]) | inhibition (INH) (Enterococcus faecalis [13]) | MIC (Enterococcus gallinarum [14]) | inhibition (INH) (Enterococcus faecalis [15]) | MIC (Enterococcus faecalis [16]) | MIC (Enterococcus faecium [17]) | Ratio (Staphylococcus aureus [18]) | Ratio (Staphylococcus aureus [19]) | further results
1 | CN[C@H](CC(C)C)C(=O)N[C@H]1C(=O)N[C@@H](CC(N)=O)C(=O)N[C@H]2C(=O)N[C@H]3C(=O)N[C@H](C(=O)N[C@H](C(=O)NCCSSCCCCCCCCCCC[N+](C)(C)C)c4cc(O)cc(O)c4-c4cc3ccc4O)[C@H](O)c3ccc(c(Cl)c3)Oc3cc2cc(c3O[C@@H]2O[C@H](CO)[C@@H](O)[C@H](O)[C@H]2O[C@H]2C[C@](C)(N)[C@H](O)[C@H](C)O2)Oc2ccc(cc2Cl)[C@H]1O | 8 | 4 µg/mL | 0.12 µg/mL | 1 µg/mL | 16 | 8 | 1 µg/mL | 8 | 0.5 µg/mL | 1 µg/mL | 4 µg/mL | 8 µg/mL | 0.25 µg/mL | 98% | 2 µg/mL | 84% | 2 µg/mL | 16 µg/mL | – | – | –
2 | CN[C@H](CC(C)C)C(=O)N[C@H]1C(=O)N[C@@H](CC(N)=O)C(=O)N[C@H]2C(=O)N[C@H]3C(=O)N[C@H](C(=O)N[C@H](C(=O)NCCSSCCNC(=O)CCSC(c4ccccc4)(c4ccccc4)c4ccccc4)c4cc(O)cc(O)c4-c4cc3ccc4O)[C@H](O)c3ccc(c(Cl)c3)Oc3cc2cc(c3O[C@@H]2O[C@H](CO)[C@@H](O)[C@H](O)[C@H]2O[C@H]2C[C@](C)(N)[C@H](O)[C@H](C)O2)Oc2ccc(cc2Cl)[C@H]1O | 8 | 2 µg/mL | – | 8 µg/mL (≈ 4.18 µM) | 32 | 8 | – | 8 | 4 µg/mL (≈ 2.09 µM) | – | 2 µg/mL | – | – | 100% | 1 µg/mL (≈ 0.522 µM) | 97% | 2 µg/mL (≈ 1.04 µM) | – | 8 | 8 | –
3 | CN[C@H](CC(C)C)C(=O)N[C@H]1C(=O)N[C@@H](CC(N)=O)C(=O)N[C@H]2C(=O)N[C@H]3C(=O)N[C@H](C(=O)N[C@H](C(=O)NCCCCCNC(=O)CCCCC4CCSS4)c4cc(O)cc(O)c4-c4cc3ccc4O)[C@H](O)c3ccc(c(Cl)c3)Oc3cc2cc(c3O[C@@H]2O[C@H](CO)[C@@H](O)[C@H](O)[C@H]2O[C@H]2C[C@](C)(N)[C@H](O)[C@H](C)O2)Oc2ccc(cc2Cl)[C@H]1O (stereo partly specified) | – | 8 µg/mL | 0.06 µg/mL (≈ 0.0348 µM) | 2 µg/mL (≈ 1.16 µM) | – | – | 0.06 µg/mL (≈ 0.0348 µM) | – | 2 µg/mL (≈ 1.16 µM) | 4 µg/mL (≈ 2.32 µM) | 8 µg/mL | 32 µg/mL (≈ 18.6 µM) | 1 µg/mL (≈ 0.581 µM) | 100% | 8 µg/mL (≈ 4.65 µM) | 100% | 4 µg/mL (≈ 2.32 µM) | > 32 µg/mL | 4 | 4 | Ratio (Clostridioides difficile [20]): 4; Ratio (Streptococcus pneumoniae [21]): 4
4 | CN[C@H](CC(C)C)C(=O)N[C@H]1C(=O)N[C@@H](CC(N)=O)C(=O)N[C@H]2C(=O)N[C@H]3C(=O)N[C@H](C(=O)N[C@H](C(=O)NCCCS)c4cc(O)cc(O)c4-c4cc3ccc4O)[C@H](O)c3ccc(c(Cl)c3)Oc3cc2cc(c3O[C@@H]2O[C@H](CO)[C@@H](O)[C@H](O)[C@H]2O[C@H]2C[C@](C)(N)[C@H](O)[C@H](C)O2)Oc2ccc(cc2Cl)[C@H]1O | – | 4 µg/mL | ≤ 0.03 µg/mL | 4 µg/mL (≈ 2.63 µM) | 16 | – | 0.12 µg/mL (≈ 0.0788 µM) | – | 4 µg/mL (≈ 2.63 µM) | 16 µg/mL (≈ 10.5 µM) | 4 µg/mL | > 32 µg/mL | 8 µg/mL (≈ 5.25 µM) | 100% | 1 µg/mL (≈ 0.657 µM) | 95% | 4 µg/mL (≈ 2.63 µM) | 1 µg/mL (≈ 0.657 µM) | – | – | –
5 | CN[C@H](CC(C)C)C(=O)N[C@H]1C(=O)N[C@@H](CC(N)=O)C(=O)N[C@H]2C(=O)N[C@H]3C(=O)N[C@H](C(=O)N[C@H](C(=O)NCCCCCS)c4cc(O)cc(O)c4-c4cc3ccc4O)[C@H](O)c3ccc(c(Cl)c3)Oc3cc2cc(c3O[C@@H]2O[C@H](CO)[C@@H](O)[C@H](O)[C@H]2O[C@H]2C[C@](C)(N)[C@H](O)[C@H](C)O2)Oc2ccc(cc2Cl)[C@H]1O | – | 32 µg/mL | ≤ 0.03 µg/mL | 8 µg/mL (≈ 5.16 µM) | – | – | 0.06 µg/mL (≈ 0.0387 µM) | – | 8 µg/mL (≈ 5.16 µM) | 4 µg/mL (≈ 2.58 µM) | 32 µg/mL | > 32 µg/mL | 2 µg/mL (≈ 1.29 µM) | 100% | 0.5 µg/mL (≈ 0.322 µM) | 99% | 1 µg/mL (≈ 0.645 µM) | 1 µg/mL (≈ 0.645 µM) | – | – | Ratio (Clostridioides difficile [20]): 16; Ratio (Streptococcus pneumoniae [21]): 16
